Where a name gives a salt, the structure may show the parent alone.
What was measured:
L6-myotubes [1] = assay: Measurement of intracellular cAMP levels in differentiated L6 cells (alpha screen cAMP kit), compared to isoproterenol; assay type: cell-based; settings: Rattus norvegicus, L6, 0.25 h, agonist 1×10^−5 M, 15 min, read-out: Biological example 2: intracellular cAMP levels, activity compared to that of isoproterenol
Summary of the method: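 L6 myoblasts were differentiated into myotubes over 7 days in 2% FBS, then serum-starved overnight. Agonist at 1×10^−5 M final was applied for 15 min in HBSS with 1% BSA, 5 mM HEPES and 1 mM IBMX, pH 7.4. After ethanol extraction and lysis, cAMP was quantified by AlphaScreen, with activity expressed relative to isoproterenol.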

L6-myotubes [2] = assay: Glucose uptake in differentiated L6-myotubes (3H-2-deoxyglucose), compared to isoproterenol; assay type: cell-based; settings: agonist 1×10^−5 M, 50 nM 3H-2-deoxyglucose; for Emax at 10 µM: read-out: Biological example 1: glucose uptake, activity compared to that of isoproterenol
Summary of the method: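 Serum-starved differentiated L6 myotubes stimulated with agonist at 1×10^−5 M for 1 h 40 min, re-dosed in glucose-free medium for 20 min, then given 50 nM ^3H-2-deoxyglucose for 10 min. Uptake read by β-counting of NaOH lysates; activity expressed relative to isoproterenol.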

## CC(C)(CC[C@H]1CC[C@H](C(=O)O)CC1)NC[C@H](O)c1cccc(F)c1 [Example 117, (1R,4r)-4-(3-(((R)-2-(3-Fluorophenyl)-2-hydroxyethyl)amino)-3-methyl-butyl)cyclohexane-1-carboxylic acid]
L6-myotubes [1]
  Emax at 10 µM: < 25%
L6-myotubes [2]
  Emax at 10 µM: < 25%

## CC(C)(CC[C@H]1CC[C@H](C(=O)O)CC1)NC[C@H](O)c1cncc(F)c1 [Example 118, (1R,4r)-4-(3-(((R)-2-(5-Fluoropyridin-3-yl)-2-hydroxyethyl)amino)-3-methylbutyl)cyclohexane-1-carboxylic acid]
L6-myotubes [1]
  Emax at 10 µM: < 25%
L6-myotubes [2]
  Emax at 10 µM: 25 to 50%

## CCOC(=O)CO[C@H]1CC[C@H](C(C)(C)NC[C@H](O)c2cccc(F)c2)CC1 [Example 123, Ethyl 2-(((1R,4r)-4-(2-(((R)-2-(3-fluorophenyl)-2-hydroxyethyl)amino)-propan-2-yl)cyclohexyl)oxy)acetate]
L6-myotubes [1]
  Emax at 10 µM: < 25%
L6-myotubes [2]
  Biological example 1: glucose uptake, activity compared to that of isoproterenol: + + +

## CCOC(=O)CO[C@H]1CC[C@@H](C(C)(C)NC[C@H](O)c2cccc(F)c2)CC1 [Example 124, Ethyl 2-(((1S,4s)-4-(2-(((R)-2-(3-fluorophenyl)-2-hydroxyethyl)amino-)propan-2-yl)cyclohexyl)oxy)acetate]
L6-myotubes [1]
  Emax at 10 µM: < 25%
L6-myotubes [2]
  Biological example 1: glucose uptake, activity compared to that of isoproterenol: + +

## CCOC(=O)CO[C@H]1CC[C@H](C(C)(C)NC[C@H](O)c2cncc(F)c2)CC1 [Example 125, Ethyl 2-(((1R,4r)-4-(2-(((R)-2-(5-fluoropyridin-3-yl)-2-hydroxyethyl)-amino)propan-2-yl)cyclohexyl)oxy)acetate]
L6-myotubes [1]
  Emax at 10 µM: < 25%
L6-myotubes [2]
  Biological example 1: glucose uptake, activity compared to that of isoproterenol: + + +

## CC(C)(NC[C@H](O)c1cccc(F)c1)[C@H]1CC[C@H](OCC(=O)O)CC1 [Example 126, 2-(((1R,4r)-4-(2-(((R)-2-(3-Fluorophenyl)-2-hydroxyethyl)amino)propan-2-yl)cyclohexyl)oxy)acetic acid]
L6-myotubes [1]
  Emax at 10 µM: < 25%
L6-myotubes [2]
  Biological example 1: glucose uptake, activity compared to that of isoproterenol: + +

## CC(C)(NC[C@H](O)c1cncc(F)c1)[C@H]1CC[C@H](OCC(=O)O)CC1 [Example 127, 2-(((1R,4r)-4-(2-(((R)-2-(5-Fluoropyridin-3-yl)-2-hydroxyethyl)amino)-propan-2-yl)cyclohexyl)oxy)acetic acid]
L6-myotubes [1]
  Emax at 10 µM: < 25%
L6-myotubes [2]
  Biological example 1: glucose uptake, activity compared to that of isoproterenol: + +

## CC(C)(NC[C@H](O)c1cccc(F)c1)[C@H]1CC[C@@H](OCC(=O)O)CC1 [Example 128, 2-(((1S,4s)-4-(2-(((R)-2-(3-Fluorophenyl)-2-hydroxyethyl)amino)propan-2-yl)cyclohexyl)oxy)acetic acid]
L6-myotubes [1]
  Emax at 10 µM: < 25%
L6-myotubes [2]
  Biological example 1: glucose uptake, activity compared to that of isoproterenol: + +

## CC(C)(C[C@H]1CC[C@@H](C#N)CC1)NC[C@H](O)c1cccc(F)c1 [Example 129, (1S,4s)-4-(2-(((R)-2-(3-Fluorophenyl)-2-hydroxyethyl)amino)-2-methylpropyl)cyclohexane-1-carbonitrile]
L6-myotubes [1]
  Emax at 10 µM: 25 to 50%
L6-myotubes [2]
  Biological example 1: glucose uptake, activity compared to that of isoproterenol: + + +

## CC(C)(C[C@H]1CC[C@H](N)CC1)NC[C@@H](O)c1cccc(C#N)n1 [Example 130, 6-((R)-2-((1-((1r,4R)-4-Aminocyclohexyl)-2-methylpropan-2-yl)amino)-1-hydroxyethyl)picolinonitrile trihydrochloride]
L6-myotubes [1]
  Emax at 10 µM: < 25%
L6-myotubes [2]
  Biological example 1: glucose uptake, activity compared to that of isoproterenol: + +

## CC(C)(C[C@H]1CC[C@@H](N)CC1)NC[C@@H](O)c1cccc(C#N)n1 [Example 131, 6-((R)-2-((1-((1s,4S)-4-Aminocyclohexyl)-2-methylpropan-2-yl)amino)-1-hydroxyethyl)picolinonitrile trihydrochloride]
L6-myotubes [1]
  Emax at 10 µM: < 25%
L6-myotubes [2]
  Biological example 1: glucose uptake, activity compared to that of isoproterenol: + +

## CC(C)(C[C@H]1CC[C@H](N)CC1)NC[C@H](O)c1cccc(C#N)n1 [Example 132, 6-((S)-2-((1-((1r,4S)-4-Aminocyclohexyl)-2-methylpropan-2-yl)amino)-1-hydroxyethyl)picolinonitrile trihydrochloride]
L6-myotubes [1]
  Emax at 10 µM: 25 to 50%
L6-myotubes [2]
  Biological example 1: glucose uptake, activity compared to that of isoproterenol: + + +

## CC(C)(C[C@H]1CC[C@@H](NC(=O)OC(C)(C)C)CC1)NC[C@H](O)c1cccc(C#N)n1 [Example 133, tert-Butyl ((1R,4s)-4-(2-(((5)-2-(6-Cyanopyridin-2-yl)-2-hydroxyethyl)-amino)-2-methylpropyl)cyclohexyl)carbamate]
L6-myotubes [1]
  Emax at 10 µM: < 25%
L6-myotubes [2]
  Biological example 1: glucose uptake, activity compared to that of isoproterenol: + +

## CC(C)(C[C@H]1CC[C@@H](N)CC1)NC[C@H](O)c1cccc(C#N)n1 [Example 134, 6-((S)-2-((1-((1s,4R)-4-Aminocyclohexyl)-2-methylpropan-2-yl)amino)-1-hydroxyethyl)picolinonitrile trihydrochloride]
L6-myotubes [1]
  Emax at 10 µM: < 25%
L6-myotubes [2]
  Biological example 1: glucose uptake, activity compared to that of isoproterenol: + +

## CC(=O)N[C@H]1CC[C@H](CC(C)(C)NC[C@@H](O)c2cccc(C#N)n2)CC1 [Example 135, N-((1R,4r)-4-(2-(((R)-2-(6-Cyanopyridin-2-yl)-2-hydroxyethyl)amino)-2-methylpropyl)cyclohexyl)acetamide]
L6-myotubes [1]
  Emax at 10 µM: < 25%
L6-myotubes [2]
  Biological example 1: glucose uptake, activity compared to that of isoproterenol: + +

## CC(C)(C[C@H]1CC[C@H](NS(C)(=O)=O)CC1)NC[C@@H](O)c1cccc(C#N)n1 [Example 136, N-((1R,4r)-4-(2-(((R)-2-(6-Cyanopyridin-2-yl)-2-hydroxyethyl)amino)-2-methylpropyl)cyclohexyl)methanesulfonamide]
L6-myotubes [1]
  Emax at 10 µM: < 25%
L6-myotubes [2]
  Biological example 1: glucose uptake, activity compared to that of isoproterenol: + +

## CC(=O)N[C@H]1CC[C@@H](CC(C)(C)NC[C@@H](O)c2cccc(C#N)n2)CC1 [Example 137, N-((1S,4s)-4-(2-(((R)-2-(6-Cyanopyridin-2-yl)-2-hydroxyethyl)amino)-2-methylpropyl)cyclohexyl)acetamide]
L6-myotubes [1]
  Emax at 10 µM: < 25%
L6-myotubes [2]
  Biological example 1: glucose uptake, activity compared to that of isoproterenol: + +

## CC(C)(C[C@H]1CC[C@@H](NS(C)(=O)=O)CC1)NC[C@@H](O)c1cccc(C#N)n1 [Example 138, N-((1S,4s)-4-(2-(((R)-2-(6-Cyanopyridin-2-yl)-2-hydroxyethyl)amino)-2-methylpropyl)cyclohexyl)methanesulfonamide]
L6-myotubes [1]
  Emax at 10 µM: < 25%
L6-myotubes [2]
  Biological example 1: glucose uptake, activity compared to that of isoproterenol: + +

## CC(=O)N[C@H]1CC[C@H](CC(C)(C)NC[C@H](O)c2cccc(C#N)n2)CC1 [Example 139, N-((1S,4r)-4-(2-(((S)-2-(6-Cyanopyridin-2-yl)-2-hydroxyethyl)amino)-2-methylpropyl)cyclohexyl)acetamide]
L6-myotubes [1]
  Emax at 10 µM: 25 to 50%
L6-myotubes [2]
  Biological example 1: glucose uptake, activity compared to that of isoproterenol: + + +

## CC(C)(C[C@H]1CC[C@H](NS(C)(=O)=O)CC1)NC[C@H](O)c1cccc(C#N)n1 [Example 140, N-((1S,4r)-4-(2-(((S)-2-(6-Cyanopyridin-2-yl)-2-hydroxyethyl)amino)-2-methylpropyl)cyclohexyl)methanesulfonamide]
L6-myotubes [1]
  Emax at 10 µM: < 25%
L6-myotubes [2]
  Biological example 1: glucose uptake, activity compared to that of isoproterenol: + + +

## CC(=O)N[C@H]1CC[C@@H](CC(C)(C)NC[C@H](O)c2cccc(C#N)n2)CC1 [Example 141, N-((1R,4s)-4-(2-(((S)-2-(6-Cyanopyridin-2-yl)-2-hydroxyethyl)amino)-2-methylpropyl)cyclohexyl)acetamide]
L6-myotubes [1]
  Emax at 10 µM: < 25%
L6-myotubes [2]
  Biological example 1: glucose uptake, activity compared to that of isoproterenol: + + +

## CC(C)(C[C@H]1CC[C@@H](NS(C)(=O)=O)CC1)NC[C@H](O)c1cccc(C#N)n1 [Example 142, N-((1R,4s)-4-(2-(((S)-2-(6-Cyanopyridin-2-yl)-2-hydroxyethyl)amino)-2-methylpropyl)cyclohexyl)methanesulfonamide]
L6-myotubes [1]
  Emax at 10 µM: < 25%
L6-myotubes [2]
  Biological example 1: glucose uptake, activity compared to that of isoproterenol: + + +

## CC(=O)N[C@H]1CC[C@@H](CC(C)(C)NC[C@H](O)c2cccnc2C)CC1 [Example 143, N-((1S,4s)-4-(2-(((R)—H-hydroxy-2-(2-methylpyridin-3-yl)ethyl)amino)-2-methylpropyl)cyclohexyl)acetamide dihydrochloride]
L6-myotubes [1]
  Emax at 10 µM: < 25%
L6-myotubes [2]
  Biological example 1: glucose uptake, activity compared to that of isoproterenol: + + +

## Cc1ncccc1[C@@H](O)CNC(C)(C)C[C@H]1CC[C@@H](NS(C)(=O)=O)CC1 [Example 144, N-((1S,4s)-4-(2-(((R)-2-Hydroxy-2-(2-methylpyridin-3-yl)ethyl)amino)-2-methylpropyl)cyclohexyl)methanesulfonamide dihydrochloride]
L6-myotubes [1]
  Emax at 10 µM: < 25%
L6-myotubes [2]
  Biological example 1: glucose uptake, activity compared to that of isoproterenol: + +

## CC(=O)N[C@H]1CC[C@H](CC(C)(C)NC[C@H](O)c2cccnc2C)CC1.Cl [Example 145, N-((1R,4r)-4-(2-(((R)-2-Hydroxy-2-(2-methylpyridin-3-yl)ethyl)amino)-2-methylpropyl)cyclohexyl)acetamide dihydrochloride]
L6-myotubes [1]
  Emax at 10 µM: < 25%
L6-myotubes [2]
  Biological example 1: glucose uptake, activity compared to that of isoproterenol: + + +

## Cc1ncccc1[C@@H](O)CNC(C)(C)C[C@H]1CC[C@H](NS(C)(=O)=O)CC1 [Example 146, N-((1R,4r)-4-(2-(((R)-2Hydroxy-2-(2-methylpyridin-3-yl)ethyl)amino)-2-methylpropyl)cyclohexyl)methanesulfonamide dihydrochloride]
L6-myotubes [1]
  Emax at 10 µM: < 25%
L6-myotubes [2]
  Biological example 1: glucose uptake, activity compared to that of isoproterenol: + +

From patent US20240390298A1, “CYCLOHEXYL BETA-HYDROXY ALKYL AMINES AND MEDICAL USES THEREOF” (ATROGI AB, priority 2021, published 2024)
